Reference: patent US12523663B2, “Use of CD9 as a biomarker and as a biotarget in glomerulonephritis or glomerulosclerosis” (INSERM (INSTITUT NATIONAL DE LA SANTÉ ET DE LA RECHERCHE …, priority 2019, dated 2026)

Key:
Type in all cases: cell-based
PEC [1] = test: Proliferation assay (Ki67 staining, flow cytometry); conditions: PDGF-BB stimulation
Description: To assess cell proliferation, we used the nuclear antigen Ki67 staining. After overnight starvation in ECBM+1% FBS, cells were treated 24 hours with PDGF-BB (10 ng/mL) or HBEGF (20 ng/mL) or corresponding controls. Cells were then trypsinized and washed in cold PBS. Supernatants were kept and included in analysis. After centrifugation, cells were permeabilized with 1 mL of ice-cold ethanol for 2 h at −20° C. Following two washes with FACS buffer (HBSS, 2% FBS and 10 mM HEPES), cells were stained for 30 min at room temperature in the dark with phycoerythrin (PE)-conjugated anti-human Ki67 mAb (clone B56) (BD Pharmingen) and washed. Samples were analyzed on a BD LSRII flow cytometer (BD Bioscience). An isotype control staining with PE mouse IgG1 was performed. Data were analyzed using FlowJo software (FlowJo, LLC).

PDGFRβ = test: Western blot of PDGFRβ phosphorylation in PEC; conditions: PEC stimulated with PDGF-BB
Description: PEC lysates were prepared with RIPA extraction buffer containing phosphatase inhibitors and protease inhibitors (Roche). Equal amounts of proteins were loaded onto sodium dodecyl sulfate-polyacrylamide electrophoresis gels for separation and transferred onto poly(vinylidene difluoride) membranes. The membranes were blocked with milk and probed with different antibodies: rat anti-CD9 (BD Pharminogen, 553758, 1:1000), rabbit anti-phospho-PDGF receptor-β Y1009 (Cell Signaling Technology, 4549; 1:1000), rabbit anti-PDGFRB (Cell Signaling, 3169; 1:1000), rabbit anti-integrin […] (Millipore, 04-1109, 1:1000), rabbit anti-CASP3 (Cell Signaling Technology, 9662; 1:1000), rabbit anti-phospho EGFR Y1068 (Cell Signaling Technology, 2234; 1:1000), rabbit anti EGFR (Cell Signaling Technology, 2232; 1:1000), rabbit anti-phospho-FAK Y397 (Cell Signaling 3283, 1:1000), rabbit anti-FAK (Millipore, 06-543,1:1000). Membranes were then probed with horseradish peroxidase-conjugated secondary antibodies (Cell Signaling Technology, 7074 and 7076; 1:2000; Jackson Immunoresearch, 706-036-148; 1:1000) and bands were visualized by enhanced chemiluminescence (Clarity Western ECL substrate; Bio-Rad, 170-5061). A LAS-4000 imaging system (Fuji, LAS4000, Burlington, N.J., USA) was used to reveal bands and densitometric analysis was used for quantification.

PEC [2] = test: Cell migration in IBIDI chambers (scratch assay); conditions: scratch assays, growth factor stimulation
Description: Unoriented migration assay was performed using IBIDI chambers (Culture-Insert 2 Well in μ-Dish 35 mm, high ibiTreat, n° 81176). After confluence was obtained, PECs were grown in ECBM without supplements with FBS 1% overnight. The insert was then removed creating a gap of 500 μm between cells. A first round of photographs was taken (HO), shortly after cells were stimulated with either ECBM without supplements with FBS 1% (control), or with HB-EGF 10 ng/mL, or with PDGF-BB 10 ng/mL. Photographs were taken every 30 min for 12 h. Areas of migration were measured by automatic quantification on NIS-Elements AR software.

Molecule	PEC proliferation (number of KI67+ cells) (PEC [1])	PDGFRβ phosphorylation (PDGFRβ)	PEC migration (PEC [2])
PDGF-BB: growth factor used to stimulate PECs	induced PEC proliferation	induced a rapid and transient PDGFRβ phosphorylation	induced PEC migration
HB-EGF: growth factor used to stimulate PECs (protein, UniProt Q99075 63-148, looked up) Heparin-binding EGF-like …: DLQEADLDLLRVTLSSKPQALATPNKEEHGKRKKKGKGLGKKRDPCLRKYKDFCIHGECKYVKELRAPSCICHPGYHGERCHGLSL	–	–	induced PEC migration
